Data published in US20240246918A1, “COMPOUNDS AND COMPOSITIONS AS EIF4E INHIBITORS AND THE USES THEREOF” (Ribometrix, Inc., priority 2022, published 2024).
pIC50: −log10 of the molar value. Read-outs that look alike come from different tables or passages of the source.

Legend:
[1] = test system: cap-dependent translation in Flp-In-293 reporter cells; assay: Cellular cap-dependent translation inhibition assay (dual luciferase assay, DLA; Fluc/Rluc ratio, 24 hours); assay type: cell-based; settings: dual luciferase assay, Flp-In-293 reporter cells, 24 hours, Fluc/Rluc ratio, read-out: DLA 205 IC50
[2] = test system: COLO 205 colorectal tumor cells; assay: Tumor cell viability inhibition assay (CellTiter-Glo 2.0, 72 hours); assay type: cell-based; settings: COLO 205 cell viability
Outline: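 IC50 derived by 4-parameter fitting after normalizing luminescence to DMSO and max-inhibition wells. Compounds tested as 11 concentrations in 4-fold steps on COLO 205 cells seeded at 1500 per well in RPMI-1640/10% FBS; ATP content measured with CellTiter-Glo 2.0 after 72 h.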

human eIF4E protein = target: T1, human eIF4E protein (Homo sapiens, UniProt P06730); assay: Biochemical competitive binding assay (TR-FRET competition, EDA-m7GDP-ATTO-647N probe); settings: read-out: hEIF4E TR-FRET IC50
T1 construct: purchased Novus NBP-45314
Outline: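 IC50 values come from 4-parameter fits of the normalized 665/620 nm TR-FRET ratio. Compound was first incubated 15 min with 4 nM recombinant His-eIF4E bound to 2.5 nM Eu-anti-His antibody, then 15 min with 5 nM m7GDP-ATTO-647N tracer, in pH 7.5 HEPES buffer with 100 mM KCl, Tween-20 and BSA.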

T1 sequence (P06730 whole entry): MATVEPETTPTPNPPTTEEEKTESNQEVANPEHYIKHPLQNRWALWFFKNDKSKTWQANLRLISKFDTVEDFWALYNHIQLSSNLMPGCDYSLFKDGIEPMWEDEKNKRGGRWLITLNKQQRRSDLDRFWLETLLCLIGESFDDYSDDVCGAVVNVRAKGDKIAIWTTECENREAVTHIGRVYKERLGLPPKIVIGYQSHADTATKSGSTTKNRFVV

Row | Compound | pIC50 ([1]; Homo sapiens, Flp-In-293, 24 h) | pIC50 ([2]; Homo sapiens, COLO 205, 72 h) | pIC50 (human eIF4E protein) | pIC50 [1] | pIC50 [2]
1 | Cc1cc(-c2cc(Cl)ccc2OCCn2c(C)nc3c(c2=O)CC(N(CC(F)(F)F)C2CC2)CC3)c2scc(C(=O)O)c2n1 (single isomer, unassigned) [Compound 319] | 5.30 to 6.00 | 4.70 to 5.30 | 6.30 to 7.00 | – | –
2 | Cc1cc(-c2cc(Cl)ccc2OCCn2c(C)nc3c(c2=O)CC(N(CC(F)(F)F)C2CC2)CC3)c2scc(C(=O)O)c2n1 (single isomer, unassigned) [Compound 320] | – | – | 6.30 to 7.00 | 5.30 to 6.00 | 4.70 to 5.30
3 | Cc1cc(-c2cc(Cl)ccc2OCCn2c(C)nc3c(c2=O)CC(N2CC(C(F)(F)F)C2)CC3)c2scc(C(=O)NS(C)(=O)=O)c2n1 (single isomer, unassigned) [Compound 321] | > 6.00 | > 5.30 | > 7.00 | – | –
4 | Cc1cc(-c2cc(Cl)ccc2OCCn2c(C)nc3c(c2=O)CC(N2CC(C(F)(F)F)C2)CC3)c2scc(C(=O)NS(C)(=O)=O)c2n1 (single isomer, unassigned) [Compound 322] | – | – | > 7.00 | > 6.00 | > 5.30
5 | Cc1cc(-c2cc(Cl)ccc2OCCn2c(C)nc3c(c2=O)C[C@H](N2CCC[C@@H](F)C2)CC3)c2scc(C(=O)O)c2n1 (single isomer, unassigned) [Compound 323] | > 6.00 | > 5.30 | > 7.00 | – | –
6 | Cc1cc(-c2cc(Cl)ccc2OCCn2c(C)nc3c(c2=O)C[C@@H](N2CCC[C@@H](F)C2)CC3)c2scc(C(=O)O)c2n1 (single isomer, unassigned) [Compound 324] | > 6.00 | > 5.30 | > 7.00 | – | –
7 | Cc1nc2c(c(=O)n1CC#Cc1ccc(Cl)cc1-c1ccnc3c(C(=O)O)csc13)C[C@@H](N1CC[C@@H](F)C1)CC2 (single isomer, unassigned) [Compound 327] | > 6.00 | > 5.30 | > 7.00 | – | –
8 | Cc1cc(-c2cc(Cl)ccc2OCCn2c(C)nc3c(c2=O)C[C@@H](N2CC[C@@H](F)C2)CC3)c2scc(C(=O)O)c2n1 (single isomer, unassigned) [Compound 329] | > 6.00 | > 5.30 | > 7.00 | – | –
9 | Cc1cc(-c2cc(Cl)ccc2OCCn2c(C)nc3c(c2=O)CC(N(C)Cc2ccncc2)CC3)c2scc(C(=O)NS(C)(=O)=O)c2n1 (single isomer, unassigned) [Compound 330] | > 6.00 | > 5.30 | > 7.00 | – | –
10 | Cc1nc2c(c(=O)n1CC#Cc1ccc(Cl)cc1-c1ccnc3c(C(=O)NS(C)(=O)=O)csc13)CC(N1CC(F)(F)C1)CC2 (single isomer, unassigned) [Compound 331] | – | 4.70 to 5.30 | 6.30 to 7.00 | 5.30 to 6.00 | –
11 | Cc1nc2c(c(=O)n1CC#Cc1ccc(Cl)cc1-c1ccnc3c(C(=O)NS(C)(=O)=O)csc13)CC(N1CC(F)(F)C1)CC2 (single isomer, unassigned) [Compound 332] | – | – | 6.30 to 7.00 | < 5.30 | 4.70 to 5.30
12 | Cc1nc2c(c(=O)n1CC#Cc1ccc(Cl)cc1-c1ccnc3c(C(=O)NS(C)(=O)=O)csc13)CC(N(C)C1CC(F)(F)C1)CC2 (single isomer, unassigned) [Compound 333] | > 6.00 | > 5.30 | > 7.00 | – | –
13 | Cc1nc2c(c(=O)n1CC#Cc1ccc(Cl)cc1-c1ccnc3c(C(=O)NS(C)(=O)=O)csc13)CC(N(C)C1CC(F)(F)C1)CC2 (single isomer, unassigned) [Compound 334] | – | – | > 7.00 | > 6.00 | > 5.30
14 | Cc1cc(-c2cc(Cl)ccc2OCCn2c(C)nc3c(c2=O)CC(N(C)C2CC2)CC3)c2scc(C(=O)O)c2n1 (single isomer, unassigned) [Compound 335] | > 6.00 | > 5.30 | > 7.00 | – | –
15 | Cc1cc(-c2cc(Cl)ccc2OCCn2c(C)nc3c(c2=O)CC(N(C)C2CC2)CC3)c2scc(C(=O)O)c2n1 (single isomer, unassigned) [Compound 336] | – | – | > 7.00 | > 6.00 | > 5.30
